Data from patent US4418192A, “Anthracyclinone trisaccharide compounds” (priority 1981, dated 1983).
Converted amounts (≈) assume the structure as drawn. Read-outs that look alike come from different tables or passages of the source.

Assays:
L 1210 leukemia = experiment: Antitumor activity: prolongation of survival time of CDF1 mice after intraperitoneal transplantation of L 1210 leukemia cells; format: in vivo; details: Mus musculus, L1210, ip, 720 h, read-out: Prolongation rate of the survival time (T/C)
Method: After intraperitoneal transplantation of L 1210 leukemia cells (1×10^5 cells/mouse), 0.25 ml/animal of solutions of one of the anthracyclinone glycosides (HCl salts) of the present invention in physiological saline was intraperitoneally injected to CDF1 mice every day for 9 days.

L 1210 leukemia cells = experiment: Inhibition of growth of L 1210 leukemia cells in culture; format: cell-based; details: Mus musculus, L1210, 48 h, read-out: IC50 Cell growth
Method: L 1210 culture cells (5×10^4 cells/ml; final cell concentration) were inoculated to RPMI 1640 medium (Roswell Park Memorial Institute 1640 medium) containing 20% calf serum and then one of the anthracyclinone glycosides listed in Table 4 was added to make a final concentration of 0.1-5 μg/ml. After incubation at 37° C. for 2 days in a CO2 incubator, the number of cells was counted. Based on these counts, the 50% inhibitory concentration (IC50) of each test compound on the growth of L 1210 leukemia cells was calculated relative to the control test.

[1] = system: DNA synthesis in L 1210 cells; experiment: Inhibition of DNA synthesis in L 1210 cells (radioactive precursor incorporation); format: cell-based; details: Mus musculus
Method: (§1) For measurement of IC50 on the synthesis of nucleic acids, 5×10^5 L 1210 cells/ml were pre-cultured at 37° C. for 1-2 hours in RPMI 1640 medium containing 10% calf serum in a CO2 incubator. One of the anthracyclinone glycosides listed in Table 4 was added and incubated for a further 15 minutes. Then 0.05 μCi/ml of ^14 C-uridine or ^14 C-thymidine was added and incubated for a further 60 minutes. At the end of incorporation of the radioactive compound, 10% trichloroacetic acid was poured into the cell suspension for termination of the reaction as well as forced precipitation. The acid-insoluble fraction was collected, rinsed three times with 5% trichloroacetic acid and then dissolved in formic acid for measurement of radioactivity. Based on the radioactivities of the test and control runs, IC50 was calculated.

[2] = system: RNA synthesis in L 1210 cells; experiment: Inhibition of RNA synthesis in L 1210 cells (radioactive precursor incorporation); format: cell-based; details: Mus musculus
Method: as §1

[3] = in words, cited from earlier work
[4] = L1210, read-out: IC50 DNA synthesis
[5] = L1210, read-out: IC50 RNA synthesis
[6] = L 1210 cells, RPMI 1640 with 20% calf serum, 37° C., 2 days
[7] = L1210, L 1210 cells, 15 min pre-incubation, 60 min with radioactive precursor (^14 C-uridine or ^14 C-thymidine), read-out: IC50 DNA synthesis
[8] = L1210, L 1210 cells, 15 min pre-incubation, 60 min with radioactive precursor (^14 C-uridine or ^14 C-thymidine), read-out: IC50 RNA synthesis

Row | SMILES | response vs control in vivo at 2.5 mg/kg (L 1210 leukemia) [%] | response vs control in vivo at 5 mg/kg (L 1210 leukemia) [%] | IC50 (L 1210 leukemia cells; [6]) [µg/mL] | IC50 [1, 7] [µg/mL] | IC50 [2, 8] [µg/mL] | response vs control in vivo at 1.25 mg/kg (L 1210 leukemia) [%] | further results
1 | CC[C@@]1(O)C[C@H](O[C@H]2C[C@H](N(C)C)[C@H](O[C@H]3C[C@H](OC(C)=O)[C@H](O[C@H]4CCC(=O)[C@H](C)O4)[C@H](C)O3)[C@H](C)O2)c2c(cc3c(c2O)C(=O)c2c(O)cccc2C3=O)[C@H]1C(=O)OC [3"-O--acetyl AKN--RDC] | 114 | 168 |  |  |  |  | response vs control in vivo at 7.5 mg/kg (L 1210 leukemia): 186%; response vs control in vivo at 10 mg/kg (L 1210 leukemia): 180%; IC50 (L 1210 leukemia cells): 0.06 µg/mL (≈ 0.0703 µM); IC50 [1, 4]: 1.3 µg/mL (≈ 1.52 µM); IC50 [2, 5]: 0.1 µg/mL (≈ 0.117 µM)
2 | COc1cccc2c1C(=O)c1c(O)c3c(c(O)c1C2=O)C[C@@](O)(C(=O)CO)C[C@@H]3O[C@H]1C[C@H](N(C)C)[C@H](O[C@H]2C[C@H](OC(C)=O)[C@H](O[C@H]3CCC(=O)[C@H](C)O3)[C@H](C)O2)[C@H](C)O1 [3"-O--acetyl AMN--RDC] |  |  | < 0.01 | 0.32 (≈ 0.374 µM) | 0.012 (≈ 0.014 µM) |  | response vs control in vivo at 0.32 mg/kg (L 1210 leukemia; 0.32 mg/kg/day, i.p. every day for 9 days, HCl salts, L 1210 i.p. in CDF1 mice, control = 100): 144%; response vs control in vivo at 0.63 mg/kg (L 1210 leukemia; 0.63 mg/kg/day, i.p. every day for 9 days, HCl salts, L 1210 i.p. in CDF1 mice, control = 100): 165%; response vs control in vivo at 1.25 mg/kg (L 1210 leukemia; 1.25 mg/kg/day, i.p. every day for 9 days, HCl salts, L 1210 i.p. in CDF1 mice, control = 100): 140%; response vs control in vivo at 2.5 mg/kg (L 1210 leukemia; 2.5 mg/kg/day, i.p. every day for 9 days, HCl salts, L 1210 i.p. in CDF1 mice, control = 100): 96%
3 | CC(=O)O[C@H]1C[C@H](O[C@@H]2[C@H](C)O[C@@H](O[C@H]3C[C@](O)(C(C)=O)Cc4c(O)c5c(c(O)c43)C(=O)c3c(O)cccc3C5=O)C[C@@H]2N(C)C)O[C@@H](C)[C@H]1O[C@H]1CCC(=O)[C@H](C)O1 [3"-O--acetyl CMN--RDC] | 159 | 208 | < 0.01 | 0.36 (≈ 0.436 µM) | 0.04 (≈ 0.0484 µM) | 124 | response vs control in vivo at 7.5 mg/kg (L 1210 leukemia): 214%; response vs control in vivo at 10 mg/kg (L 1210 leukemia): 165%
4 | COc1cccc2c1C(=O)c1c(O)c3c(c(O)c1C2=O)C[C@@](O)(C(C)=O)C[C@@H]3O[C@H]1C[C@H](N(C)C)[C@H](O[C@H]2C[C@H](OC(C)=O)[C@H](O[C@H]3CCC(=O)[C@H](C)O3)[C@H](C)O2)[C@H](C)O1 [3"-O--acetyl DMN--RDC] | 180 | 210 | < 0.01 | 0.3 (≈ 0.357 µM) | 0.02 (≈ 0.0238 µM) | 144 | response vs control in vivo at 0.63 mg/kg (L 1210 leukemia): 114%; response vs control in vivo at 7.5 mg/kg (L 1210 leukemia): 164%
5 | COc1cccc2c1C(=O)c1c(O)c3c(c(O)c1C2=O)C[C@@](O)(C(=O)COC(C)=O)C[C@@H]3O[C@H]1C[C@H](N(C)C)[C@H](O[C@H]2C[C@H](OC(C)=O)[C@H](O[C@H]3CCC(=O)[C@H](C)O3)[C@H](C)O2)[C@H](C)O1 [14,3"-O--diacetyl AMN--RDC] |  |  |  |  |  |  | IC50 (L 1210 leukemia cells): < 0.01 µg/mL; IC50 [1, 4]: 0.5 µg/mL (≈ 0.557 µM); IC50 [2, 5]: 0.014 µg/mL (≈ 0.0156 µM)
6 | COc1cccc2c1C(=O)c1c(O)c3c(c(O)c1C2=O)C[C@@](O)(C(=O)COC(=O)Cc1ccccc1)C[C@@H]3O[C@H]1C[C@H](N(C)C)[C@H](O[C@H]2C[C@H](OC(C)=O)[C@H](O[C@H]3CCC(=O)[C@H](C)O3)[C@H](C)O2)[C@H](C)O1 [14-O--phenylacetyl-3"-O--acetyl AMN--RDC] |  |  | 0.03 (≈ 0.0308 µM) | 4 (≈ 4.11 µM) | 0.15 (≈ 0.154 µM) |  | 
7 | COc1cccc2c1C(=O)c1c(O)c3c(c(O)c1C2=O)C[C@@](O)(C(=O)CO)C[C@@H]3O[C@H]1C[C@H](N(C)C)[C@H](O[C@H]2C[C@H](O)[C@H](O[C@H]3CCC(=O)[C@H](C)O3)[C@H](C)O2)[C@H](C)O1 [AMN--RDC] | 145 | 130 | < 0.01 | 0.15 (≈ 0.184 µM) | 0.011 (≈ 0.0135 µM) | 158 | response vs control in vivo at 0.32 mg/kg (L 1210 leukemia): 114%; response vs control in vivo at 0.63 mg/kg (L 1210 leukemia): 142%
8 | CC[C@@]1(O)C[C@H](O[C@H]2C[C@H](N(C)C)[C@H](O[C@H]3C[C@H](O)[C@H](O[C@H]4CCC(=O)[C@H](C)O4)[C@H](C)O3)[C@H](C)O2)c2c(cc3c(c2O)C(=O)c2c(O)cccc2C3=O)[C@H]1C(=O)OC [Aclacinomycin A, reference compound] |  |  | 0.03 (≈ 0.037 µM) | 0.65 (≈ 0.801 µM) | 0.085 (≈ 0.105 µM) |  | cardio-toxicity ([3]; U.S. Pat. No. 3,988,315 and Jap. P. No. 864,851): less cardio-toxic
9 | COc1cccc2c1C(=O)c1c(O)c3c(c(O)c1C2=O)C[C@@](O)(C(=O)CO)C[C@@H]3O[C@H]1C[C@H](N)[C@H](O)[C@H](C)O1 [Adriamycin, reference compound] |  |  | 0.018 (≈ 0.0331 µM) | 1.25 (≈ 2.3 µM) | 0.49 (≈ 0.902 µM) |  | side effects ([3]; clinical use as antitumor chemotherapeutics): often cause undesirable side effects
10 | CC(=O)[C@]1(O)Cc2c(O)c3c(c(O)c2[C@@H](O[C@H]2C[C@H](N(C)C)[C@H](O[C@H]4C[C@H](O)[C@H](O[C@H]5CCC(=O)[C@H](C)O5)[C@H](C)O4)[C@H](C)O2)C1)C(=O)c1c(O)cccc1C3=O [CMN--RDC] | 160 | 180 | < 0.01 | 0.19 (≈ 0.242 µM) | 0.035 (≈ 0.0447 µM) | 132 | response vs control in vivo at 7.5 mg/kg (L 1210 leukemia): 145%
11 | COc1cccc2c1C(=O)c1c(O)c3c(c(O)c1C2=O)C[C@@](O)(C(C)=O)C[C@@H]3O[C@H]1C[C@H](N)[C@H](O[C@H]2C[C@H](O)[C@H](O[C@H]3CCC(=O)[C@H](C)O3)[C@H](C)O2)[C@H](C)O1 [DMN--DaDC] |  |  | 0.09 (≈ 0.117 µM) | 1.15 (≈ 1.49 µM) | 0.165 (≈ 0.214 µM) |  | 
12 | CN[C@H]1C[C@H](O[C@H]2C[C@](O)(C(C)=O)Cc3c(O)c4c(c(O)c32)C(=O)c2c(OC)cccc2C4=O)O[C@@H](C)[C@H]1O[C@H]1C[C@H](O)[C@H](O[C@H]2CCC(=O)[C@H](C)O2)[C@H](C)O1 [DMN--DmDC] |  |  |  |  |  |  | IC50 (L 1210 leukemia cells): 0.023 µg/mL (≈ 0.0293 µM); IC50 [1, 4]: 0.62 µg/mL (≈ 0.791 µM); IC50 [2, 5]: 0.065 µg/mL (≈ 0.0829 µM)
13 | COc1cccc2c1C(=O)c1c(O)c3c(c(O)c1C2=O)C[C@@](O)(C(C)=O)C[C@@H]3O[C@H]1C[C@H](N(C)C)[C@H](O[C@H]2C[C@H](O)[C@H](O[C@H]3CCC(=O)[C@H](C)O3)[C@H](C)O2)[C@H](C)O1 [DMN--RDC] | 187 | 126 | < 0.01 | 0.17 (≈ 0.213 µM) | 0.017 (≈ 0.0213 µM) | 184 | response vs control in vivo at 0.32 mg/kg (L 1210 leukemia): 126%; response vs control in vivo at 0.63 mg/kg (L 1210 leukemia): 135%
14 | COc1cccc2c1C(=O)c1c(O)c3c(c(O)c1C2=O)C[C@@](O)(C(C)=O)C[C@@H]3O[C@H]1C[C@H](N(C)C)[C@H](O[C@H]2C[C@H](O)[C@H](O)[C@H](C)O2)[C@H](C)O1 [DMN--RD] | 165 | 120 | < 0.01 | 0.28 (≈ 0.408 µM) | 0.04 (≈ 0.0583 µM) | 172 | response vs control in vivo at 0.32 mg/kg (L 1210 leukemia): 114%; response vs control in vivo at 0.63 mg/kg (L 1210 leukemia): 144%
15 | COc1cccc2c1C(=O)c1c(O)c3c(c(O)c1C2=O)C[C@@](O)(C(C)=O)C[C@@H]3O[C@H]1C[C@H](N)[C@H](O)[C@H](C)O1 [Daunomycin, reference compound] |  |  | 0.036 (≈ 0.0682 µM) | 0.3 (≈ 0.569 µM) | 0.18 (≈ 0.341 µM) |  | 
